From PubChem BioAssay (NCI)
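These data come from cells grown in 96-well plates and exposed to compound for 48 hours at five concentrations. At the TGI there is no net growth.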

Experiments:
Assay in all cases: DTP human tumour cell line panel, 48 h
UO-31 renal = tested on: UO-31 renal
ACHN renal = tested on: ACHN renal
HCC-2998 colon = tested on: HCC-2998 colon
K-562 leukemia = tested on: K-562 leukemia
U251 CNS = tested on: U251 CNS
OVCAR-3 ovarian = tested on: OVCAR-3 ovarian
PC-3 prostate = tested on: PC-3 prostate
EKVX NSCLC = tested on: EKVX NSCLC
SNB-19 CNS = tested on: SNB-19 CNS
OVCAR-4 ovarian = tested on: OVCAR-4 ovarian
SW-620 colon = tested on: SW-620 colon
MDA-MB-435 = tested on: MDA-MB-435
M14 melanoma = tested on: M14 melanoma
MCF7 breast = tested on: MCF7 breast
OVCAR-5 ovarian = tested on: OVCAR-5 ovarian
T-47D breast = tested on: T-47D breast
HCT-15 colon = tested on: HCT-15 colon
SK-MEL-5 melanoma = tested on: SK-MEL-5 melanoma
SN12C renal = tested on: SN12C renal
NCI/ADR-RES ovarian = tested on: NCI/ADR-RES ovarian
SF-295 CNS = tested on: SF-295 CNS
COLO 205 colon = tested on: COLO 205 colon
786-0 renal = tested on: 786-0 renal
OVCAR-8 ovarian = tested on: OVCAR-8 ovarian
KM12 colon = tested on: KM12 colon
SK-MEL-2 melanoma = tested on: SK-MEL-2 melanoma
SF-268 CNS = tested on: SF-268 CNS
MDA-N = tested on: MDA-N
MDA-MB-231 breast = tested on: MDA-MB-231 breast
CCRF-CEM leukemia = tested on: CCRF-CEM leukemia
NCI-H23 lung = tested on: NCI-H23 lung
HT29 colon = tested on: HT29 colon
NCI-H460 lung = tested on: NCI-H460 lung
A549 NSCLC = tested on: A549 NSCLC
SK-OV-3 ovarian = tested on: SK-OV-3 ovarian
HCT-116 colon = tested on: HCT-116 colon
HS 578T breast = tested on: HS 578T breast
SF-539 CNS = tested on: SF-539 CNS
UACC-62 melanoma = tested on: UACC-62 melanoma
MALME-3M melanoma = tested on: MALME-3M melanoma
SR leukemia = tested on: SR leukemia
SK-MEL-28 melanoma = tested on: SK-MEL-28 melanoma
CAKI-1 renal = tested on: CAKI-1 renal
TK-10 renal = tested on: TK-10 renal
UACC-257 melanoma = tested on: UACC-257 melanoma
A498 renal = tested on: A498 renal
LOX IMVI melanoma = tested on: LOX IMVI melanoma
RXF 393 renal = tested on: RXF 393 renal
NCI-H226 lung = tested on: NCI-H226 lung
DU-145 prostate = tested on: DU-145 prostate
HOP-62 NSCLC = tested on: HOP-62 NSCLC
MOLT-4 leukemia = tested on: MOLT-4 leukemia
RPMI-8226 leukemia = tested on: RPMI-8226 leukemia
SNB-75 CNS = tested on: SNB-75 CNS
BT-549 breast = tested on: BT-549 breast
NCI-H522 lung = tested on: NCI-H522 lung
HOP-92 NSCLC = tested on: HOP-92 NSCLC
IGROV1 ovarian = tested on: IGROV1 ovarian

`O=[N+]([O-])C(=C(Nc1ccccc1)Nc1ccccc1)/C(Cl)=C(\Cl)[N+](=O)[O-]` showed a TGI (UO-31 renal) of 8.21 µM, a TGI (ACHN renal) of 7.12 µM and a TGI (HCC-2998 colon) of 28.9 µM. It also gave a TGI (K-562 leukemia) of over 100 µM, a TGI (U251 CNS) of 18.1 µM and a TGI (OVCAR-3 ovarian) of 12 µM. For the same compound, the TGI (PC-3 prostate) was 20.9 µM, the TGI (EKVX NSCLC) was 19.5 µM and the TGI (SNB-19 CNS) was 26.8 µM. The TGI (OVCAR-4 ovarian) was 17.6 µM, the TGI (SW-620 colon) was 5.6 µM and the TGI (MDA-MB-435) was 10.5 µM. It also gave a TGI (M14 melanoma) of 16.8 µM, a TGI (MCF7 breast) of 20.3 µM and a TGI (OVCAR-5 ovarian) of 22.7 µM. It also gave a TGI (T-47D breast) of 7.43 µM, a TGI (HCT-15 colon) of 12.3 µM and a TGI (SK-MEL-5 melanoma) of 5.05 µM. The TGI (SN12C renal) was 7.77 µM, the TGI (NCI/ADR-RES ovarian) was 38.5 µM and the TGI (SF-295 CNS) was 26.1 µM. The TGI (COLO 205 colon) was 7.08 µM, the TGI (786-0 renal) was 15 µM and the TGI (OVCAR-8 ovarian) was 2.77 µM. It also gave a TGI (KM12 colon) of 14.8 µM, a TGI (SK-MEL-2 melanoma) of 31.8 µM and a TGI (SF-268 CNS) of 14.6 µM. The TGI (MDA-N) was 10.5 µM, the TGI (MDA-MB-231 breast) was 10.8 µM and the TGI (CCRF-CEM leukemia) was 92.5 µM. The TGI (NCI-H23 lung) was 11.2 µM, the TGI (HT29 colon) was 8.73 µM and the TGI (NCI-H460 lung) was 53.7 µM. For the same compound, the TGI (A549 NSCLC) was 35.6 µM, the TGI (SK-OV-3 ovarian) was over 100 µM and the TGI (HCT-116 colon) was 10.7 µM. For the same compound, the TGI (HS 578T breast) was 8.74 µM, the TGI (SF-539 CNS) was 4.15 µM and the TGI (UACC-62 melanoma) was 18.7 µM. For the same compound, the TGI (MALME-3M melanoma) was 14.2 µM, the TGI (SR leukemia) was over 100 µM and the TGI (SK-MEL-28 melanoma) was 16.3 µM. For the same compound, the TGI (CAKI-1 renal) was 3.18 µM, the TGI (TK-10 renal) was 16.9 µM and the TGI (UACC-257 melanoma) was 19.7 µM. It also gave a TGI (A498 renal) of 46.2 µM, a TGI (LOX IMVI melanoma) of 11.4 µM and a TGI (RXF 393 renal) of 6.13 µM. It also gave a TGI (NCI-H226 lung) of 34.5 µM, a TGI (DU-145 prostate) of 8.92 µM and a TGI (HOP-62 NSCLC) of 26.4 µM. The TGI (MOLT-4 leukemia) was 17.7 µM, the TGI (RPMI-8226 leukemia) was 19.2 µM and the TGI (SNB-75 CNS) was 22.4 µM. It also gave a TGI (BT-549 breast) of 13.7 µM.

For `Cc1c[n+](=O)c2ccccc2n1[O-]`, the TGI (UO-31 renal) was over 100 µM, the TGI (ACHN renal) was over 100 µM and the TGI (K-562 leukemia) was over 100 µM. The TGI (U251 CNS) was over 100 µM, the TGI (OVCAR-3 ovarian) was over 100 µM and the TGI (PC-3 prostate) was over 100 µM. The TGI (EKVX NSCLC) was over 100 µM, the TGI (SNB-19 CNS) was over 100 µM and the TGI (OVCAR-4 ovarian) was over 100 µM. It also gave a TGI (SW-620 colon) of over 100 µM, a TGI (MDA-MB-435) of over 100 µM and a TGI (M14 melanoma) of over 100 µM. The TGI (MCF7 breast) was over 100 µM, the TGI (OVCAR-5 ovarian) was over 100 µM and the TGI (T-47D breast) was over 100 µM. It also gave a TGI (HCT-15 colon) of over 100 µM, a TGI (SK-MEL-5 melanoma) of over 100 µM and a TGI (SN12C renal) of over 100 µM. The TGI (NCI/ADR-RES ovarian) was over 100 µM, the TGI (SF-295 CNS) was over 100 µM and the TGI (COLO 205 colon) was over 100 µM. For the same compound, the TGI (786-0 renal) was over 100 µM, the TGI (OVCAR-8 ovarian) was over 100 µM and the TGI (KM12 colon) was over 100 µM. It also gave a TGI (SK-MEL-2 melanoma) of over 100 µM, a TGI (SF-268 CNS) of over 100 µM and a TGI (MDA-N) of over 100 µM. The TGI (MDA-MB-231 breast) was over 100 µM, the TGI (CCRF-CEM leukemia) was over 100 µM and the TGI (NCI-H23 lung) was over 100 µM. It also gave a TGI (HT29 colon) of over 100 µM, a TGI (NCI-H460 lung) of over 100 µM and a TGI (A549 NSCLC) of over 100 µM. The TGI (SK-OV-3 ovarian) was over 100 µM, the TGI (HCT-116 colon) was over 100 µM and the TGI (HS 578T breast) was over 100 µM. For the same compound, the TGI (SF-539 CNS) was over 100 µM, the TGI (UACC-62 melanoma) was over 100 µM and the TGI (NCI-H522 lung) was over 100 µM. The TGI (HOP-92 NSCLC) was over 100 µM, the TGI (MALME-3M melanoma) was over 100 µM and the TGI (SR leukemia) was over 100 µM. The TGI (SK-MEL-28 melanoma) was over 100 µM, the TGI (CAKI-1 renal) was over 100 µM and the TGI (TK-10 renal) was over 100 µM. It also gave a TGI (UACC-257 melanoma) of over 100 µM, a TGI (IGROV1 ovarian) of over 100 µM and a TGI (A498 renal) of over 100 µM. The TGI (LOX IMVI melanoma) was over 100 µM, the TGI (RXF 393 renal) was over 100 µM and the TGI (DU-145 prostate) was over 100 µM. The TGI (HOP-62 NSCLC) was over 100 µM, the TGI (MOLT-4 leukemia) was over 100 µM and the TGI (RPMI-8226 leukemia) was over 100 µM. It also gave a TGI (SNB-75 CNS) of over 100 µM and a TGI (BT-549 breast) of over 100 µM.
